Data published in patent US20250250282A1, “NOVEL SEVEN-MEMBERED RING-FUSED COMPOUNDS” (PRISM Biolab Co., Ltd., priority 2022, published 2025).

Tested on: CellSensor T-REx NICD CSL-bla HeLa cell line (Notch response element driving beta-lactamase reporter)
Assay: Notch assay (CSL-bla beta-lactamase reporter, DOX-inducible NICD)
Assay type: cell-based
Settings: Homo sapiens; 10 μM compound; HeLa/T-REx NICD CSL-bla cells, doxycycline-induced, 16-20 hours incubation; blue/green emission ratio
Experimental: We used the CellSensor T-REx™ NICD CSL-bla HeLa cell line, which was engineered by lentiviral transduction of HeLa cells with a Notch response element driving beta-lactamase reporter gene expression (CSL-bla) along with DOX (doxycycline)-inducible NICD (Notch intracellular domain) constructs. Addition of DOX to these cells allows for regulated NICD transcription factor expression and subsequent beta-lactamase expression.
Specifically, the following protocol was used.
• 1. Plate Cells: 32 μL/well of HeLa/T-REx™ NICD CSL-bla cells at 10^3 cells/well complete medium into 384-well plate. • 2. Prepare 10× compounds in assay medium. • 3. Add 4 μL compounds or 1% DMSO in assay medium to the cells. • 4. Add 4 μL 10× Doxycycline in Assay Medium to the treated wells, and 4 μL Assay Medium to the Untreated and cell free control wells. • 5. Incubate the assay plate in a humidified 37° C./5% CO2 incubator for 16-20 hours. • 6. Preparation of 6× LiveBLAzer™-FRET B/G Substrate (CCF4-AM) Mixture according to the manual and cell loading should be done in the absence of direct strong lighting. • 7. Remove assay plate from the humidified 37° C./5% CO2 incubator. Add 8 μl of 6× Substrate Mixture from […] to each well. Cover the plate to protect it from light and evaporation. Incubate at room temperature for 4 hours. • 8. Reading an Assay Plate using the following filter selections:
• 9. Data analysis: Use the assay plate layout to identify the location of the Cell-free wells. These control wells are used for background subtraction. Determine the average emission from the Cell-free wells at both 460 nm (Average Blue Background) and 530 nm (Average Green Background). Subtract the Average Blue Background (data collected at 460 nm) from all of the blue emission data. Subtract the Average Green background (data collected at 530 nm) from all of the green emission data. Calculate the Blue/Green Emission Ratio for each well, by dividing the background-subtracted blue emission values by the background-subtracted green emission values.

Compound | inhibition at 10 µM [%]
O=C1[C@H](Cc2ccccc2)CN2C(=O)CCN(C(=O)NCCC(c3ccccc3)c3ccccc3)C2CN1CCc1ccccc1 (stereo partly drawn) [ID-12, (7R)-7-benzyl-N-(3,3-diphenylpropyl)-4,8-dioxo-9-phenethyloctahydropyrimido[1,2-a][1,4]diazepine-1(2H)-carboxamide] | 51.7
C[C@@H]1CN2C(=O)CCN(C(=O)NCc3cccc4ccccc34)C2CN(CC2CCCCC2)C1=O (stereo partly drawn) [ID-03, (7R)-9-(cyclohexylmethyl)-7-methyl-N-(naphthalen-1-ylmethyl)-4,8-dioxooctahydropyrimido[1,2-a][1,4]diazepine-1(2H)-carboxamide] | 53.4
CC(C)CCN1CC2N(C[C@@H](Cc3ccc(O)cc3)C1=O)C(=O)CCN2C(=O)NCCC(c1ccccc1)c1ccccc1 (stereo partly drawn) [ID-05, (7R)—N-(3,3-diphenylpropyl)-7-(4-hydroxybenzyl)-9-isopentyl-4,8-dioxooctahydropyrimido[1,2-a][1,4]diazepine-1(2H)-carboxamide] | 51.5
O=C1[C@H](Cc2ccccc2)CN2C(=O)CCN(C(=O)NCCC(c3ccccc3)c3ccccc3)C2CN1Cc1ccccc1 (stereo partly drawn) [ID-08, (7R)-7,9-dibenzyl-N-(3,3-diphenylpropyl)-4,8-dioxooctahydropyrimido[1,2-a][1,4]diazepine-1(2H)-carboxamide] | 64.9
O=C1[C@H](Cc2ccc(O)cc2)CN2C(=O)CCN(C(=O)NCC3CCCCC3)C2CN1Cc1cccc2ccccc12 (stereo partly drawn) [ID-15, (7R)—N-(cyclohexylmethyl)-7-(4-hydroxybenzyl)-9-(naphthalen-1-ylmethyl)-4,8-dioxooctahydropyrimido[1,2-a][1,4]diazepine-1(2H)-carboxamide] | 57.5
CC(C)COC(=O)N1c2ccsc2C(=O)N2C[C@@H](Cc3ccc(O)cc3)C(=O)N(Cc3cccc4ccccc34)CC21 (stereo partly drawn) [ID-38, isobutyl (8R)-8-(4-hydroxybenzyl)-6-(naphthalen-1-ylmethyl)-7,11-dioxo-4a,5,6,7,8,9-hexahydrothieno[3′,2′:4,5]pyrimido[1,2-a][1,4]diazepine-4(11H)-carboxylate] | 52.4
CC(C)[C@@H]1CN2C(=O)c3sccc3N(C(=O)NCc3cccs3)C2CN(Cc2ccc3ccccc3c2)C1=O (stereo partly drawn) [ID-35, (8R)-8-isopropyl-6-(naphthalen-2-ylmethyl)-7,11-dioxo-N-(thiophen-2-ylmethyl)-4a,5,6,7,8,9-hexahydrothieno[3′,2′:4,5]pyrimido[1,2-a][1,4]diazepine-4(11H)-carboxamide] | 54.9
CC(C)[C@@H]1CN2C(=O)c3sccc3N(C(=O)NCc3ccccc3)C2CN(Cc2ccc3ccccc3c2)C1=O (stereo partly drawn) [ID-20, (8R)—N-benzyl-8-isopropyl-6-(naphthalen-2-ylmethyl)-7,11-dioxo-4a,5,6,7,8,9-hexahydrothieno[3′,2′:4,5]pyrimido[1,2-a][1,4]diazepine-4(11H)-carboxamide] | 56.8
C[C@@H]1CN2C(=O)c3sccc3N(C(=O)NCCC(c3ccccc3)c3ccccc3)C2CN(Cc2ccc3ccccc3c2)C1=O (stereo partly drawn) [ID-29, (8R)—N-(3,3-diphenylpropyl)-8-methyl-6-(naphthalen-2-ylmethyl)-7,11-dioxo-4a,5,6,7,8,9-hexahydrothieno[3′,2′:4,5]pyrimido[1,2-a][1,4]diazepine-4(11H)-carboxamide] | 56.7
CCCCN1CC2N(C[C@@H](CC(C)C)C1=O)C(=O)c1sccc1N2C(=O)NCc1cccc2ccccc12 (stereo partly drawn) [ID-24, (8R)-6-butyl-8-isobutyl-N-(naphthalen-1-ylmethyl)-7,11-dioxo-4a,5,6,7,8,9-hexahydrothieno[3′,2′:4,5]pyrimido[1,2-a][1,4]diazepine-4(11H)-carboxamide] | 51.1
CC(C)[C@@H]1CN2C(=O)CCN(C(=O)NCc3ccccc3)C2CN(Cc2ccc3ccccc3c2)C1=O (stereo partly drawn) [ID-01, (7R)—N-benzyl-7-isopropyl-9-(naphthalen-2-ylmethyl)-4,8-dioxooctahydropyrimido[1,2-a][1,4]diazepine-1(2H)-carboxamide] | 54.7
CCCCN1CC2N(C[C@@H](Cc3ccc(O)cc3)C1=O)C(=O)c1sccc1N2C(=O)NCc1ccc2c(c1)OCO2 (stereo partly drawn) [ID-32, (8R)—N-(benzo[d][1,3]dioxol-5-ylmethyl)-6-butyl-8-(4-hydroxybenzyl)-7,11-dioxo-4a,5,6,7,8,9-hexahydrothieno[3′,2′:4,5]pyrimido[1,2-a][1,4]diazepine-4(11H)-carboxamide] | 52.5
CC(C)C[C@@H]1CN2C(=O)CCN(C(=O)NCCC(c3ccccc3)c3ccccc3)C2CN(CCc2ccccc2)C1=O (stereo partly drawn) [ID-10, (7R)—N-(3,3-diphenylpropyl)-7-isobutyl-4,8-dioxo-9-phenethyloctahydropyrimido[1,2-a][1,4]diazepine-1(2H)-carboxamide] | 50.3
CC(C)CCN1CC2N(C[C@@H](CC(C)C)C1=O)C(=O)c1sccc1N2C(=O)NCc1cccc2ccccc12 (stereo partly drawn) [ID-25, (8R)-8-isobutyl-6-isopentyl-N-(naphthalen-1-ylmethyl)-7,11-dioxo-4a,5,6,7,8,9-hexahydrothieno[3′,2′:4,5]pyrimido[1,2-a][1,4]diazepine-4(11H)-carboxamide] | 52.8
O=C1[C@H](Cc2ccc(O)cc2)CN2C(=O)c3sccc3N(C(=O)NCCc3ccccc3)C2CN1Cc1cccc2ccccc12 (stereo partly drawn) [ID-22, (8R)-8-(4-hydroxybenzyl)-6-(naphthalen-1-ylmethyl)-7,11-dioxo-N-phenethyl-4a,5,6,7,8,9-hexahydrothieno[3′,2′:4,5]pyrimido[1,2-a][1,4]diazepine-4(11H)-carboxamide] | 56.2
O=C1[C@H](Cc2ccc(O)cc2)CN2C(=O)c3sccc3N(C(=O)NCC3CCCCC3)C2CN1Cc1cccc2cccnc12 (stereo partly drawn) [ID-30, (8R)—N-(cyclohexylmethyl)-8-(4-hydroxybenzyl)-7,11-dioxo-6-(quinolin-8-ylmethyl)-4a,5,6,7,8,9-hexahydrothieno[3′,2′:4,5]pyrimido[1,2-a][1,4]diazepine-4(11H)-carboxamide] | 61.2
O=C1[C@H](Cc2ccccc2)CN2C(=O)CCN(C(=O)NCC3CCCCC3)C2CN1Cc1cccc2ccccc12 (stereo partly drawn) [ID-16, (7R)-7-benzyl-N-(cyclohexylmethyl)-9-(naphthalen-1-ylmethyl)-4,8-dioxooctahydropyrimido[1,2-a][1,4]diazepine-1(2H)-carboxamide] | 60.2
O=C1[C@H](Cc2ccccc2)CN2C(=O)CCN(C(=O)NCCC(c3ccccc3)c3ccccc3)C2CN1CC1CCCCC1 (stereo partly drawn) [ID-07, (7R)-7-benzyl-9-(cyclohexylmethyl)-N-(3,3-diphenylpropyl)-4,8-dioxooctahydropyrimido[1,2-a][1,4]diazepine-1(2H)-carboxamide] | 54.7
Cc1ccc(CNC(=O)N2c3ccsc3C(=O)N3C[C@@H](Cc4ccc(O)cc4)C(=O)N(CCC(C)C)CC32)cc1 (stereo partly drawn) [ID-37, (8R)-8-(4-hydroxybenzyl)-6-isopentyl-N-(4-methylbenzyl)-7,11-dioxo-4a,5,6,7,8,9-hexahydrothieno[3′,2′:4,5]pyrimido[1,2-a][1,4]diazepine-4(11H)-carboxamide] | 66.3
CC(C)[C@@H]1CN2C(=O)CCN(C(=O)NCCC(c3ccccc3)c3ccccc3)C2CN(Cc2ccc3ccccc3c2)C1=O (stereo partly drawn) [ID-14, (7R)—N-(3,3-diphenylpropyl)-7-isopropyl-9-(naphthalen-2-ylmethyl)-4,8-dioxooctahydropyrimido[1,2-a][1,4]diazepine-1(2H)-carboxamide] | 62.4
O=C1[C@H](Cc2ccccc2)CN2C(=O)c3sccc3N(C(=O)NCCc3ccccc3)C2CN1Cc1cccc2cccnc12 (stereo partly drawn) [ID-23, (8R)-8-benzyl-7,11-dioxo-N-phenethyl-6-(quinolin-8-ylmethyl)-4a,5,6,7,8,9-hexahydrothieno[3′,2′:4,5]pyrimido[1,2-a][1,4]diazepine-4(11H)-carboxamide] | 54.6
CC(C)CCN1CC2N(C[C@@H](Cc3ccc(O)cc3)C1=O)C(=O)c1sccc1N2C(=O)NCc1ccc2c(c1)OCO2 (stereo partly drawn) [ID-33, (8R)—N-(benzo[d][1,3]dioxol-5-ylmethyl)-8-(4-hydroxybenzyl)-6-isopentyl-7,11-dioxo-4a,5,6,7,8,9-hexahydrothieno[3′,2′:4,5]pyrimido[1,2-a][1,4]diazepine-4(11H)-carboxamide] | 68.2
CC(C)CCN1CC2N(C[C@@H](Cc3ccccc3)C1=O)C(=O)CCN2C(=O)NCCC(c1ccccc1)c1ccccc1 (stereo partly drawn) [ID-06, (7R)-7-benzyl-N-(3,3-diphenylpropyl)-9-isopentyl-4,8-dioxooctahydropyrimido[1,2-a][1,4]diazepine-1(2H)-carboxamide] | 51.8
CCCCN1CC2N(C[C@@H](Cc3ccc(O)cc3)C1=O)C(=O)c1sccc1N2C(=O)NCc1ccc(C)cc1 (stereo partly drawn) [ID-36, (8R)-6-butyl-8-(4-hydroxybenzyl)-N-(4-methylbenzyl)-7,11-dioxo-4a,5,6,7,8,9-hexahydrothieno[3′,2′:4,5]pyrimido[1,2-a][1,4]diazepine-4(11H)-carboxamide] | 55.9
